The results in this text go back to patent publication US12123010B2, “Plants having increased tolerance to herbicides” (BASF SE, priority 2017, dated 2024).

Assay [1] deals with Transgenic T2 Arabidopsis plants harboring PPO inhibitor tolerance trait. The experiment in a line: Lab based germination assay in 48-well plates (Table i). Conditions: construct AMATU_PPO2_TP_hemG (Escherichia coli); in comparison to wild type plants. In kind it is in vivo, Arabidopsis thaliana.
In assay [2] the test system is Transgenic T2 Arabidopsis plants and ARBTH WT MC24 non-transgenic. The experiment in a line: Greenhouse post spray test, injury 14 DAT (Tables ii, iii).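 For all read-outs here: value is percent injury to the sprayed plants.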 In kind it is in vivo, Arabidopsis thaliana. The following applies: Arabidopsis thaliana, 336 h, Table ii; for pest or weed control at 50 g/ha: 50 g ai/ha; for pest or weed control at 100 g/ha: 100 g ai/ha; for pest or weed control at 200 g/ha: 200 g ai/ha.

For assay [3], the target named is Wild Type PPO Enzyme (Amaranthus PPO2, SEQ ID NO: 1) (Amaranthus tuberculatus, UniProt Q0NZW9). In words: PPO enzyme assay (recombinant), wild type. It counts as biochemical.
Wild Type PPO Enzyme (Amaranthus PPO2, SEQ ID NO: 1), sequence (Q0NZW9 1-534): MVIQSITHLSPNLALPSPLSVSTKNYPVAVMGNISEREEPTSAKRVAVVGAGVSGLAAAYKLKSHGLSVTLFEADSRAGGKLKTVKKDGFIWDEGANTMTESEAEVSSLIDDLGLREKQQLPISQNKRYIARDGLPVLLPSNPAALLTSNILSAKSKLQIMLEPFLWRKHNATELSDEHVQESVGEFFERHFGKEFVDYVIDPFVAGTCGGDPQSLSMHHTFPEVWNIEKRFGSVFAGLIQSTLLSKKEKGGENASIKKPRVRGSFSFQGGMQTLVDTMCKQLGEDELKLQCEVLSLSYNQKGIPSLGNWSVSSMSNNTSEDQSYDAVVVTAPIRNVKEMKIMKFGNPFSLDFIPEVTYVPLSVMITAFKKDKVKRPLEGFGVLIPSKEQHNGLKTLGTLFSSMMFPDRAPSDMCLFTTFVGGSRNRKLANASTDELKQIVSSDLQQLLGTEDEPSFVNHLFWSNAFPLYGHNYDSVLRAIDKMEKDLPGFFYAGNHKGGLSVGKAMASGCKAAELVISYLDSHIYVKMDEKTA
Assay [4] has as its system Variant PPO Enzyme R128A, F420M (Amaranthus PPO2). It counts as biochemical. The following applies: variant R128A, F420M vs wild type.

One may read the pest or weed control as how far the test organism was held down. `Cn1c(C(F)(F)F)cc(=O)n(-c2nc(Oc3ccccc3OCC(=O)O)c(F)cc2F)c1=O` [Uracilpyridine 9, 2-[2-[[3,5-difluoro-6-[3-methyl-2,6-dioxo-4-(trifluoromethyl)pyrimidin-1-yl]-2-pyridyl]oxy]phenoxy]acetic acid]: the “Tolerance Factor” value in assay [1] is recorded as 1600. The pest or weed control at 1 g/ha in assay [2] (AMATU_PPO2_WT event Q, 1 g ai/ha) worked out at 38%; in assay [2] (ARBTH WT MC24 non-transgenic, 1 g ai/ha + 1% MSO) it was 85%; in assay [2] (ARBTH_PPO1_WT event Q, 1 g ai/ha) it was 10%. The pest or weed control at 5 g/ha in assay [2] (AMATU_PPO2_WT event Q, 5 g ai/ha) was found to be 68%; in assay [2] (ARBTH WT MC24 non-transgenic, 5 g ai/ha + 1% MSO), 100%; in assay [2] (ARBTH_PPO1_S305L_Y426M event O, 5 g ai/ha) it was 0%; in assay [2] (ARBTH_PPO1_WT event Q, 5 g ai/ha) it was 50%. Besides, the pest or weed control at 10 g/ha in assay [2] (AMATU_PPO2_WT event Q, 10 g ai/ha) was 100%; in assay [2] (ARBTH WT MC24 non-transgenic, 10 g ai/ha + 1% MSO), 100%; in assay [2] (ARBTH_PPO1_S305L_Y426M event O, 10 g ai/ha) it was 0%; in assay [2] (ARBTH_PPO1_WT event Q, 10 g ai/ha), 70%. The pest or weed control at 30 g/ha in assay [2] (AMATU_PPO2_WT event Q, 30 g ai/ha) was determined as 100%; in assay [2] (ARBTH WT MC24 non-transgenic, 30 g ai/ha + 1% MSO) it was 100%; in assay [2] (ARBTH_PPO1_S305L_Y426M event O, 30 g ai/ha), 0%; in assay [2] (ARBTH_PPO1_WT event Q, 30 g ai/ha), 98%. For the same molecule, the pest or weed control at 80 g/ha in assay [2] (ARBTH WT MC24 non-transgenic, 80 g ai/ha + 1% MSO) amounted to 100%; in assay [2] (ARBTH_PPO1_S305L_Y426M event O, 80 g ai/ha), 0%.

As usually defined, the IC50 is the concentration that gives 50% inhibition. `CCOC(=O)COC(=O)COc1ncccc1Oc1nc(-n2c(=O)cc(C(F)(F)F)n(C)c2=O)c(F)cc1Cl` [Uracilpyridine 18, (2-ethoxy-2-oxo-ethyl) 2-[[3-[[3-chloro-5-fluoro-6-[3-methyl-2,6-dioxo-4-(trifluoromethyl)pyrimidin-1-yl]-2-pyridyl]oxy]-2-pyridyl]oxy]acetate]: the IC50 in assay [3] stood at 154 pM. For the same molecule, the “Tolerance Factor (R/S)” value in assay [4] came out at 753.

Turning to `CC(C)COC(=O)COc1ncccc1Oc1nc(-n2c(=O)cc(C(F)(F)F)n(C)c2=O)c(F)cc1Cl` [Uracilpyridine 17, isobutyl 2-[[3-[[3-chloro-5-fluoro-6-[3-methyl-2,6-dioxo-4-(trifluoromethyl)pyrimidin-1-yl]-2-pyridyl]oxy]-2-pyridyl]oxy]acetate], the IC50 in assay [3] is 113 pM. For the same molecule, the “Tolerance Factor (R/S)” value in assay [4] was determined as 406.

On to `C#CCOC(=O)COc1ncccc1Oc1nc(-n2c(=O)cc(C(F)(F)F)n(C)c2=O)c(F)cc1Cl` [Uracilpyridine 14, prop-2-ynyl 2-[[3-[[3-chloro-5-fluoro-6-[3-methyl-2,6-dioxo-4-(trifluoromethyl)pyrimidin-1-yl]-2-pyridyl]oxy]-2-pyridyl]oxy]acetate], for which, in assay [3], the IC50 stood at 234 pM. Besides, the “Tolerance Factor (R/S)” value in assay [4] was found to be 675.

`Cn1c(C(F)(F)F)cc(=O)n(-c2nc(Oc3cccnc3OCC(=O)OCC(F)F)c(Cl)cc2F)c1=O` [Uracilpyridine 16, 2,2-difluoroethyl 2-[[3-[[3-chloro-5-fluoro-6-[3-methyl-2,6-dioxo-4-(trifluoromethyl)pyrimidin-1-yl]-2-pyridyl]oxy]-2-pyridyl]oxy]acetate]: the IC50 in assay [3] was 175 pM. For the same molecule, in assay [4], the “Tolerance Factor (R/S)” value was 508.

Regarding `C=CCOC(=O)COc1ncccc1Oc1nc(-n2c(=O)cc(C(F)(F)F)n(C)c2=O)c(F)cc1Cl` [Uracilpyridine 13, allyl 2-[[3-[[3-chloro-5-fluoro-6-[3-methyl-2,6-dioxo-4-(trifluoromethyl)pyrimidin-1-yl]-2-pyridyl]oxy]-2-pyridyl]oxy]acetate], the concentration for half-maximal inhibition (IC50) in assay [3] was 218 pM. In assay [4], the “Tolerance Factor (R/S)” value is 421.

On to `CCOC(=O)COc1ccccc1Oc1nc(-n2c(=O)c(C)c(C(F)(F)F)n(C)c2=O)c(F)cc1Cl` [Uracilpyridine 12, ethyl 2-[2-[[3-chloro-6-[3,5-dimethyl-2,6-dioxo-4-(trifluoromethyl)pyrimidin-1-yl]-5-fluoro-2-pyridyl]oxy]phenoxy]acetate], for which the half-inhibitory concentration (IC50) in assay [3] was 212 pM. Further, the “Tolerance Factor (R/S)” value in assay [4] was found to be 536.

For the molecule `COCCOC(=O)COc1ncccc1Oc1nc(-n2c(=O)cc(C(F)(F)F)n(C)c2=O)c(F)cc1Cl` [Uracilpyridine 19, 2-methoxyethyl 2-[[3-[[3-chloro-5-fluoro-6-[3-methyl-2,6-dioxo-4-(trifluoromethyl)pyrimidin-1-yl]-2-pyridyl]oxy]-2-pyridyl]oxy]acetate], in assay [3], the 50% inhibitory concentration (IC50) worked out at 248 pM. Also, in assay [4], the “Tolerance Factor (R/S)” value is recorded as 503.

Take `CCOC(=O)COc1ccc(F)cc1Oc1nc(-n2c(=O)cc(C(F)(F)F)n(C)c2=O)c(F)cc1Cl` [Uracilpyridine 7, ethyl 2-[2-[[3-chloro-5-fluoro-6-[3-methyl-2,6-dioxo-4-(trifluoromethyl)pyrimidin-1-yl]-2-pyridyl]oxy]-4-fluoro-phenoxy]acetate]: the pest or weed control at 50 g/ha in assay [2] (ALOMY_PPO2_R137L_F438V event F) was 0%; in assay [2] (ALOMY_PPO2_R137L_F438V event G), 0%; in assay [2] (AMATU_PPO2_L397E_F420V event D), 0%; in assay [2] (AMATU_PPO2_L397E_F420V event L) it was 0%; in assay [2] (AMATU_PPO2_R128A_F420V event A), 13%; in assay [2] (AMATU_PPO2_R128A_F420V event D), 33%. The pest or weed control at 100 g/ha in assay [2] (ALOMY_PPO2_R137L_F438V event F) is 18%; in assay [2] (ALOMY_PPO2_R137L_F438V event G) it was 0%; in assay [2] (AMATU_PPO2_L397E_F420V event D) it was 0%; in assay [2] (AMATU_PPO2_L397E_F420V event L) it was 0%; in assay [2] (AMATU_PPO2_R128A_F420V event A), 50%; in assay [2] (AMATU_PPO2_R128A_F420V event D), 65%. Moreover, the pest or weed control at 200 g/ha in assay [2] (ALOMY_PPO2_R137L_F438V event F) was found to be 13%; in assay [2] (ALOMY_PPO2_R137L_F438V event G), 8%; in assay [2] (AMATU_PPO2_L397E_F420V event D) it was 10%; in assay [2] (AMATU_PPO2_L397E_F420V event L), 33%; in assay [2] (AMATU_PPO2_R128A_F420V event A), 70%; in assay [2] (AMATU_PPO2_R128A_F420V event D) it was 75%.

In the case of `CCOC(=O)COc1ccccc1Oc1nc(-n2c(=O)cc(C(F)(F)F)n(C)c2=O)ccc1Br` [Uracilpyridine 6, ethyl 2-[2-[[3-bromo-6-[3-methyl-2,6-dioxo-4-(trifluoromethyl)pyrimidin-1-yl]-2-pyridyl]oxy]phenoxy]acetate], the pest or weed control at 50 g/ha in assay [2] (ALOMY_PPO2_R137L_F438V event F), in assay [2] (ALOMY_PPO2_R137L_F438V event G), in assay [2] (AMATU_PPO2_L397E_F420V event D), in assay [2] (AMATU_PPO2_L397E_F420V event L), in assay [2] (AMATU_PPO2_R128A_F420V event A) and in assay [2] (AMATU_PPO2_R128A_F420V event D) was 0% in each case. For the same molecule, the pest or weed control at 100 g/ha turned out to be 0% in assay [2] (ALOMY_PPO2_R137L_F438V event F); 0% in assay [2] (ALOMY_PPO2_R137L_F438V event G); 0% in assay [2] (AMATU_PPO2_L397E_F420V event D); 0% in assay [2] (AMATU_PPO2_L397E_F420V event L); 43% in assay [2] (AMATU_PPO2_R128A_F420V event A); 38% in assay [2] (AMATU_PPO2_R128A_F420V event D). The pest or weed control at 200 g/ha was determined as 18% in assay [2] (ALOMY_PPO2_R137L_F438V event F); 0% in assay [2] (ALOMY_PPO2_R137L_F438V event G); 8% in assay [2] (AMATU_PPO2_L397E_F420V event D); 15% in assay [2] (AMATU_PPO2_L397E_F420V event L); 30% in assay [2] (AMATU_PPO2_R128A_F420V event A); 28% in assay [2] (AMATU_PPO2_R128A_F420V event D).

`Cn1c(C(F)(F)F)cc(=O)n(-c2nc(Oc3cccnc3OCC(=O)OCC3CC3)c(Cl)cc2F)c1=O` [Uracilpyridine 15, cyclopropylmethyl 2-[[3-[[3-chloro-5-fluoro-6-[3-methyl-2,6-dioxo-4-(trifluoromethyl)pyrimidin-1-yl]-2-pyridyl]oxy]-2-pyridyl]oxy]acetate]: in assay [3], the IC50 turned out to be 220 pM. The “Tolerance Factor (R/S)” value in assay [4] is recorded as 195.
